In general, IC50 refers to the concentration that inhibits the measured activity by half. Low values mean greater potency in that assay, high ones weaker potency in that assay.

A value given as a limit tells only on which side of the number the result lay.

Twelve molecules from patent US20250171426A1, “PYRIMIDINEDIONE-BASED COMPOUNDS AS AXL, C-MET, AND MER INHIBITORS AND METHODS OF USE THEREOF” (CMG Pharmaceutical Co., Ltd., priority 2022, published 2025) can be followed below.

What all share (format): biochemical
Common to all, as to details: 10 μM ATP, 60 min, ADP-GLO luminescence

For one assay, the target named is c-MET (Homo sapiens, UniProt P08581). Description: Enzymatic assay (ADP-Glo kinase reaction), c-MET. As for the experimental part: (§1) All the kinase reactions were performed in 5 μL using tyrosine kinase buffer with 0.2 μg/μL poly (Glu4, Tyr1) substrate, 10 μM ATP, serial dilution of the inhibitor, and incubated at room temperature for 60 min. After the indicated incubation times, 5 μL ADP-GLO™ reagent (Promega, Madison, WI) was added to the reactions and the plate was incubated at room temperature for 40 min. […] All 384-well assay plates were read using a GLOMAX™ Discover Microplate Luminometer from Promega (Madison, WI). To plot, analyze the data and calculate all kinase reaction biochemical values, both Microsoft Excel and Prism from GraphPad 7 Software (La Jolla, CA) were used.
In general terms: ADP-Glo first removes unused ATP, then detects ADP through luciferase.

For a further assay, the target named is T1, AXL (Homo sapiens, UniProt P30530).
T1 sequence (P30530 26-894): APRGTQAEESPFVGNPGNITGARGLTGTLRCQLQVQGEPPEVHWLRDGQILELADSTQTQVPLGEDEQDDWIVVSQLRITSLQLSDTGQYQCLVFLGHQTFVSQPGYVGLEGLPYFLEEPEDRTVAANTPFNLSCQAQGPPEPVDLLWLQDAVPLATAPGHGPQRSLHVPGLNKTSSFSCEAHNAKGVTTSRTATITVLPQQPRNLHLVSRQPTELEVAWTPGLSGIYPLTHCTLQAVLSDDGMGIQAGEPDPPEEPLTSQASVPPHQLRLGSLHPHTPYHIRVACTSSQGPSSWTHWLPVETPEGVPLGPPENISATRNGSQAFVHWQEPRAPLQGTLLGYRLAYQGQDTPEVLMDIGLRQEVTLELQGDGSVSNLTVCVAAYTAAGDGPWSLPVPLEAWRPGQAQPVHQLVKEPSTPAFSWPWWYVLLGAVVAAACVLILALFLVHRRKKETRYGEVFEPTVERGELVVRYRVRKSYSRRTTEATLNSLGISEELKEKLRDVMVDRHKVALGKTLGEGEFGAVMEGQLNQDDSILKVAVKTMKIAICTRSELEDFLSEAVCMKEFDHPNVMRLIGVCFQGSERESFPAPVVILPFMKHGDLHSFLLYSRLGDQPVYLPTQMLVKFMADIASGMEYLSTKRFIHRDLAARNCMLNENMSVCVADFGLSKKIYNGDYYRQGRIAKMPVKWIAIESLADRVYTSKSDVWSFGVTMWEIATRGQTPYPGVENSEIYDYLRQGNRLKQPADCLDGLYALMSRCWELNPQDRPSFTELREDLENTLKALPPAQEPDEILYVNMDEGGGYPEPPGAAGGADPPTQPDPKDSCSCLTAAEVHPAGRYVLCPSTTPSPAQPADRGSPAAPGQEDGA
Description: Enzymatic assay (ADP-Glo kinase reaction), AXL. As for the experimental part: as §1

The target in another assay is T2, MER (Homo sapiens, UniProt Q12866).
T2 sequence (Q12866 21-999): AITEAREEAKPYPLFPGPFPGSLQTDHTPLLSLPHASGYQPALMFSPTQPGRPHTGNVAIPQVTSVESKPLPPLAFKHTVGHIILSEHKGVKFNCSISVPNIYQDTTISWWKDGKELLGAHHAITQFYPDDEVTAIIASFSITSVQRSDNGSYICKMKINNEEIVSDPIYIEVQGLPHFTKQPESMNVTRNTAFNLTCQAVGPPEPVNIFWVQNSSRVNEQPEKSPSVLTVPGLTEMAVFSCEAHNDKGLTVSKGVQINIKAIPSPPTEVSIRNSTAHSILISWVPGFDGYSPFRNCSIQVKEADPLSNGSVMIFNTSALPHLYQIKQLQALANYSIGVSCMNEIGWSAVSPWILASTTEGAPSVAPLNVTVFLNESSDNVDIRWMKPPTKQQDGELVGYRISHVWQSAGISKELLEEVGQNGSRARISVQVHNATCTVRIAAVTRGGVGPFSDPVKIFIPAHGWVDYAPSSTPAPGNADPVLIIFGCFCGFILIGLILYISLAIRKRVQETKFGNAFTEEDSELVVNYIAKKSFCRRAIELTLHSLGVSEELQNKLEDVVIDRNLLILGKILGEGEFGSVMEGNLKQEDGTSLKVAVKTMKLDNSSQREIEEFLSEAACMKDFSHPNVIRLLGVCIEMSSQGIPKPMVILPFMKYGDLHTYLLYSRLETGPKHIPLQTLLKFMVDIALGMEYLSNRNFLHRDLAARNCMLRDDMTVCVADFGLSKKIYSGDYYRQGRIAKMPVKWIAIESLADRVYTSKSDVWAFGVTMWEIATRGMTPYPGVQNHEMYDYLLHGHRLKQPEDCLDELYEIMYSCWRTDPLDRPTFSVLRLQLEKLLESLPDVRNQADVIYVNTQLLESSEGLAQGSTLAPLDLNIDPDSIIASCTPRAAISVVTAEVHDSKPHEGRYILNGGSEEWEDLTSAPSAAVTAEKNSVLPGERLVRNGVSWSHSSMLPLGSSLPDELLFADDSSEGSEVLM
Kind of assay: Enzymatic assay (ADP-Glo kinase reaction), MER. As for the experimental part: (§2) All the kinase reactions were performed in 5 μL using tyrosine kinase buffer with 0.2 μg/μL poly (Glu4, Tyr1) substrate, 10 μM ATP, serial dilution of the inhibitor, and incubated at room temperature for 60 min. After the indicated incubation times, 5 μL ADP-GLO™ reagent (Promega, Madison, WI) was added to the reactions and the plate was incubated at room temperature for 40 min. Then, 10 μL of kinase detection reagent was added and after an incubation time of 40 min, luminescence was recorded and IC50 values were determined (Table 1). All 384-well assay plates were read using a GLOMAX™ Discover Microplate Luminometer from Promega (Madison, WI). To plot, analyze the data and calculate all kinase reaction biochemical values, both Microsoft Excel and Prism from GraphPad 7 Software (La Jolla, CA) were used.
as §2, with “3).” for “1).”

Sequence of c-MET (P08581 25-1390): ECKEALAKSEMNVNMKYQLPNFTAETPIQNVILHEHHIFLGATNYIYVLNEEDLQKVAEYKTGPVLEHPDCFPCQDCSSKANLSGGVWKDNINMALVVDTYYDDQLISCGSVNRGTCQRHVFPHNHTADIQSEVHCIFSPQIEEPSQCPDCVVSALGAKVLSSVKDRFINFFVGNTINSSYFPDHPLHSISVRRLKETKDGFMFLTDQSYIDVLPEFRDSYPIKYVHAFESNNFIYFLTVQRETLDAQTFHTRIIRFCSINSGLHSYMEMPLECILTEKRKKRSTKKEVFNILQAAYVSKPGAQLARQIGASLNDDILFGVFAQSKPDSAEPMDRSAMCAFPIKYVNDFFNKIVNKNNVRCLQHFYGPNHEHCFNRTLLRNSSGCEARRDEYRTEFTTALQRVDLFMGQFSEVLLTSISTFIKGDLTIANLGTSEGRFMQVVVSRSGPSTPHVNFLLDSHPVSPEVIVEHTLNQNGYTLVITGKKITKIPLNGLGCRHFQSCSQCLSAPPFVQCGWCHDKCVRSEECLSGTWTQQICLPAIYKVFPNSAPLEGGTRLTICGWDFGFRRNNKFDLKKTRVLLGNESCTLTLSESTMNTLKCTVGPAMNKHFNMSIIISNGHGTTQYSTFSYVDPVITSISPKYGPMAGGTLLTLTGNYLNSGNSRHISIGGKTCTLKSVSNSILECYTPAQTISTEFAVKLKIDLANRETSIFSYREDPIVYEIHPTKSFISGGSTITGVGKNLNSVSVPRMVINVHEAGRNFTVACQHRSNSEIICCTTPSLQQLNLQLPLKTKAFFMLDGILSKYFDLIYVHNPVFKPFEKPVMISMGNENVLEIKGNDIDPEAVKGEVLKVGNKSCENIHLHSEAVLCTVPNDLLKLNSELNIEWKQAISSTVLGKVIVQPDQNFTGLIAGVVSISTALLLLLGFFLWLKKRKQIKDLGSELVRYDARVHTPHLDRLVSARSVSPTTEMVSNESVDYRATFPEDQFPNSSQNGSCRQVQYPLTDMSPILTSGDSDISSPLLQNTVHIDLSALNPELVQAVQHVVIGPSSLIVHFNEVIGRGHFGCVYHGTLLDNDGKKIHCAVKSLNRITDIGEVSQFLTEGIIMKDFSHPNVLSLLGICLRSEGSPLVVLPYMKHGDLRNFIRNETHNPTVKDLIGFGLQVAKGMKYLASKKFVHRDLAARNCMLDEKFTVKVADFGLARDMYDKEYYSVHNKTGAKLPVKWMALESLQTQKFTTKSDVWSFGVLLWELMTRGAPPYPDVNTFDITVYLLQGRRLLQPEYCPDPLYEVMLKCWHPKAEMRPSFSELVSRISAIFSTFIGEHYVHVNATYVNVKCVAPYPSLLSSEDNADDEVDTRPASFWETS

`CC(C)n1cc(C(=O)Nc2ccc(Oc3ccnc(N)c3C#CC(=O)N3CCOCC3)c(F)c2)c(=O)n(-c2ccc(F)cc2)c1=O` [Example 14, N-(4-(2-amino-3-(3-morpholino-3-oxoprop-1-ynyl)pyridin-4-yloxy)-3-fluorophenyl)-3-(4-fluorophenyl)-1-isopropyl-2,4-dioxo-1,2,3,4-tetrahydropyrimidine-5-carboxamide]: the IC50 against c-MET, at AXL and against MER was < 10 nM each time.
As to `CC(C)n1cc(C(=O)Nc2ccc(Oc3ccnc(N)c3C#CC3CCNCC3)c(F)c2)c(=O)n(-c2ccc(F)cc2)c1=O` [Example 15, N-(4-(2-amino-3-(piperidin-4-ylethynyl)pyridin-4-yloxy)-3-fluorophenyl)-3-(4-fluorophenyl)-1-isopropyl-2,4-dioxo-1,2,3,4-tetrahydropyrimidine-5-carboxamide], the IC50 at c-MET was < 100 nM; on AXL it was < 10 nM; at MER it was < 10 nM.
With `COCCN1CCC(C#Cc2c(Oc3ccc(NC(=O)c4cn(C(C)C)c(=O)n(-c5ccc(F)cc5)c4=O)cc3F)ccnc2N)CC1` [Example 16], the IC50 at c-MET, against AXL and at MER was < 10 nM throughout.
For `CC(C)n1cc(C(=O)Nc2ccc(Oc3ccnc(N)c3C#CCN3CCNCC3)c(F)c2)c(=O)n(-c2ccc(F)cc2)c1=O` [Example 17], the IC50 on c-MET, against AXL and on MER was < 10 nM in each case.
With `COCCN1CCN(CC#Cc2c(Oc3ccc(NC(=O)c4cn(C(C)C)c(=O)n(-c5ccc(F)cc5)c4=O)cc3F)ccnc2N)CC1` [Example 18, N-(4-(2-amino-3-(3-(4-(2-methoxyethyl)piperazin-1-yl)prop-1-ylny)pyridin-4-yloxy)-3-fluorophenyl)-3-(4-fluorophenyl)-1-isopropyl-2,4-dioxo-1,2,3,4-tetrahydropyrimidine-5-carboxamide], the IC50 against c-MET, against AXL and on MER was < 10 nM throughout.
`CC(C)n1cc(C(=O)Nc2ccc(Oc3ccnc(N)c3C#CC(C)(C)N3CCNCC3)c(F)c2)c(=O)n(-c2ccc(F)cc2)c1=O` [Example 19, N-(4-(2-amino-3-(3-methyl-3-(piperazin-1-yl)but-1-ynyl)pyridin-4-yloxy)-3-fluorophenyl)-3-(4-fluorophenyl)-1-isopropyl-2,4-dioxo-1,2,3,4-tetrahydropyridmidine-5-carboxamide]: the IC50 on c-MET is < 1000 nM; on AXL, < 10 nM; against MER, < 10 nM.
In the case of `COCCN1CCN(C(C)(C)C#Cc2c(Oc3ccc(NC(=O)c4cn(C(C)C)c(=O)n(-c5ccc(F)cc5)c4=O)cc3F)ccnc2N)CC1` [Example 20, N-(4-(2-amino-3-(3-(4-(2-methoxyethyl)piperazin-1-yl)-3-methylbut-1-ynyl)pyridin-4-yloxy)-3-fluorophenyl)-3-(4-fluorophenyl)-1-isopropyl-2,4-dioxo-1,2,3,4-tetrahydropyrimidine-5-carboxamide], the IC50 against c-MET, against AXL and at MER was < 10 nM each time.
In the case of `COCCN1CCN(C(=O)CCc2c(Oc3ccc(NC(=O)c4cn(C(C)C)c(=O)n(-c5ccc(F)cc5)c4=O)cc3F)ccnc2N)CC1` [Example 21, N-(4-(2-amino-3-(3-(4-(2-methoxyethyl)piperazin-1-yl)-3-oxopropyl)pyridin-4-yloxy)-3-fluorophenyl)-3-(4-fluorophenyl)-1-isopropyl-2,4-dioxo-1,2,3,4-tetrahydropyrimidine-5-carboxamide], the IC50 was < 10000 nM on c-MET, < 1000 nM against AXL and < 1000 nM against MER.
Turning to `CC(C)n1cc(C(=O)Nc2ccc(Oc3ccnc(N)c3-c3ccccc3)c(F)c2)c(=O)n(-c2ccc(F)cc2)c1=O` [Example 22, N-(4-(2-amino-3-phenylpyridin-4-yloxy)-3-fluorophenyl)-3-(4-fluorophenyl)-1-isopropyl-2,4-dioxo-1,2,3,4-tetrahydropyrimidine-5-carboxamide], the IC50 on c-MET, at AXL and at MER was < 100 nM in each case.
Turning to `CC(C)n1cc(C(=O)Nc2ccc(Oc3ccnc(N)c3C#CC3CCN(C)CC3)c(F)c2)c(=O)n(-c2ccc(F)cc2)c1=O` [Example 23, N-(4-(2-amino-3-((1-methylpiperidin-4-yl)ethynyl)pyridin-4-yloxy)-3-fluorophenyl)-3-(4-fluorophenyl)-1-isopropyl-2,4-dioxo-1,2,3,4-tetrahydropyrimidine-5-carboxamide], the IC50 at c-MET is < 1000 nM; at AXL, < 10 nM; against MER, < 10 nM.
With `CC(C)n1cc(C(=O)Nc2ccc(Oc3ccnc(N)c3C#CC(C)(C)N3CCOCC3)c(F)c2)c(=O)n(-c2ccc(F)cc2)c1=O` [Example 25, N-(4-(2-amino-3-(3-methyl-3-morpholinobut-1-ynyl)pyridin-4-yloxy)-3-fluorophenyl)-3-(4-fluorophenyl)-1-isopropyl-2,4-dioxo-1,2,3,4-tetrahydropyrimidine-5-carboxamide], the IC50 at c-MET, on AXL and at MER was < 10 nM each time.
As to `CC(C)n1cc(C(=O)Nc2ccc(Oc3ccnc(N)c3C#CCN3CCN(C)CC3)c(F)c2)c(=O)n(-c2ccc(F)cc2)c1=O` [Example 26, N-(4-(2-amino-3-(3-(4-methylpiperazin-1-yl)prop-1-ynyl)pyridine-4-yloxy)-3-fluorophenyl)-3-(4-fluorophenyl)-1-isopropyl-2,4-dioxo-1,2,3,4-tetrahydropyrimidine-5-carboxamide], the IC50 at c-MET, against AXL and against MER was < 10 nM in each case.
